Target: T1, guanylate cyclase (Oryctolagus cuniculus, UniProt G1TXB5)
T1 sequence (G1TXB5 28-1056): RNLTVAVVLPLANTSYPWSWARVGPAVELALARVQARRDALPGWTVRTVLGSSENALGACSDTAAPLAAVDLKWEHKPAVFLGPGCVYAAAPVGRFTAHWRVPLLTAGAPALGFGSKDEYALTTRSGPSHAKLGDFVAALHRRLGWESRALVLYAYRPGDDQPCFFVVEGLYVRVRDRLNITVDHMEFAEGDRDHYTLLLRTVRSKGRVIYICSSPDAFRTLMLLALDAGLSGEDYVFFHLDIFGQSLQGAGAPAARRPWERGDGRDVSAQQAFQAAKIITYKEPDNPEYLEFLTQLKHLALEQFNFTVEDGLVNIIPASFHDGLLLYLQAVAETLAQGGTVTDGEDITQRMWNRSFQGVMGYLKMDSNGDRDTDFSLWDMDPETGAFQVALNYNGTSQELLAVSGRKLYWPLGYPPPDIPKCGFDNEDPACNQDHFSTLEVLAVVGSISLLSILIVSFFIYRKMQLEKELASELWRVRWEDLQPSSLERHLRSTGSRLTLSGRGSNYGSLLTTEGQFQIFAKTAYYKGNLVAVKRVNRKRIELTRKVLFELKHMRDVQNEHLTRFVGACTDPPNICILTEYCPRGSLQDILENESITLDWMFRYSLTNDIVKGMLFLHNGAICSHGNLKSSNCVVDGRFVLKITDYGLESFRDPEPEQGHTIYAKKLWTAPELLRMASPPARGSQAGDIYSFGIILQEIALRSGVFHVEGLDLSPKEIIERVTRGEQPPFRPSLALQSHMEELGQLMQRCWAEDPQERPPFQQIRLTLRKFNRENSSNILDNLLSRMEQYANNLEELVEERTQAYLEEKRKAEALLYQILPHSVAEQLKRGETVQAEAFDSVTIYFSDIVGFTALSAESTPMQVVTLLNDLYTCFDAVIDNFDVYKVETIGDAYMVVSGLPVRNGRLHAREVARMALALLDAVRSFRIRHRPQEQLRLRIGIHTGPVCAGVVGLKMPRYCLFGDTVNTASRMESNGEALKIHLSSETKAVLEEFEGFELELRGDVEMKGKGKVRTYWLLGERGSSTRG
Assay: rANP activation of guanylate cyclase in membrane fractions of whole choroid plexus
Type: biochemical, rabbit
Set-up: tissues were homogenized (10 mg wet weight per milliliter); from tissue; host or cells: rabbit cerebral microvessels, choroid plexus, kidney, ciliary process, pia-arachnoid, cerebellum; 100,000 g P1 pellet
Experimental: The effect of rANP on membrane-bound guanylate cyclase and adenylate cyclase activity in various brain-barrier tissues and tissue fractions from rabbit was compared with its activity in cerebrum and cerebellum. Guanylate cyclase was measured as the rate of cyclic GMP formation by modifications of the technique of Waldman et al., supra, incorporated herein by reference. Briefly, tissues were homogenized (10 mg wet weight per milliliter) in 50 mM tris-HCl, pH 8.0, 1 mM EDTA, 1 mM dithiothreitol, and 250 mM sucrose and centrifuged at 100,000g to obtain a P1 pellet. Reaction tubes contained (in 0.3 ml), 50 mM tris, pH 7.6, 6 mM MnCl₂, 0.5 mM 3-isobutyl, 1-methylxanthine (IBMX), 10 mM theophylline, 3 mM GTP, hormone (in 0.03 ml containing 2.5 mM ascorbic acid and 0.1% bovine serum albumin), and 0.06 ml of P1 fraction (40 to 60 ug of protein). The reaction (4 minutes at 30°C) was started by addition of GTP and terminated by addition of 0.3 ml of 150 mM sodium acetate (pH 4.0) and boiling for 3 minutes. Cyclic GMP formed was subsequently measured by radioimmunoassay as described in example 6, infra. Under these conditions, guanylate cyclase activity was linear with time and tissue concentration. Adenylate cyclase activity in P1 fractions was measured according to the method described by Nathanson, et al., Science; 204:843 (1979); Mol. Pharmacol. 18:199 (1980), see Figure 1C . […] Neurosci. Abstr., 10, 899 (1984); Nathanson, et al., Soc. Neurosci. Abstr., 12, 1257 (1986), incorporated herein by reference, but with a lower concentration (0.025%) of trypsin and a rotating tissue tumbler which allowed cleaner fractionation of epithelial cells from erythrocytes and vascular components.
Adenylate cyclase activity could be stimulated by isoproterenol through β-adrenergic receptors known to be present in this tissue. Values shown are the mean ± range for duplicate enzyme determinations, each assayed for cyclic AMP or cyclic GMP in triplicate. […]

## Ser-Leu-Arg-Arg-atriopeptin III (APIII) [rANP 1-28]
Choroid plexus, SEM, N = 5
  Vmax for stimulation of basal activity: 58% ± 16%
Whole choroid plexus, five separate experiments, SEM, 4 min
  Ka for activation of the enzyme: 9.8 ± 5.1 nM

## rANP 13-28 (DRIGAQSGLGCNSFRY; Atrial natriuretic peptide; UniProt P01161 135-150, looked up, fragment)
Choroid plexus
  stimulation of guanylate cyclase: almost no stimulation

Source: patent EP0583821A1, “Atriopeptins, guanylate cyclase activators, and phosphodiesterase inhibitors as treatment for glaucoma, hydrocephalus and cerebral edema (cranial fluid volume dysfunction)” (THE GENERAL HOSPITAL CORPORATION, priority 1987, dated 1988)
